This is an account of results in patent US7985538B2, “Drug resistance and methods of reversing” (Yale University, priority 2006, dated 2011).

For one assay, the system named is A2780 EOC cells. Kind of assay: Caspase-3/7 activity in A2780 cells, wt or MyD88 transfected, carboplatin versus paclitaxel. The assay is classed as cell-based, human. The note with it: 100 μg/ml carboplatin or 2 μM paclitaxel, 48 hours; for caspase-3/7 activity: wildtype A2780. As to the method: (§1) Ten μg of protein in a 50 μl total volume was mixed with 50 μl of equilibrated reagents of a caspase assay kit, i.e., the CASPASE GLO™ 3/7 Assay (Promega). After incubating at room temperature for 1 h, luminescence was measured using TD 20/20 Luminometer (Turner Designs, Sunnyvale, Calif.). Blank values were subtracted and fold-increase in activity was calculated based on activity measured from untreated cells. Each sample was measured in triplicate.
Transfection was performed using a plasmid containing the full-length cDNA (SEQ ID NO:3) of human MyD88 (pUNO-hMyD88, Invivogen), which encodes the amino acid sequence of SEQ ID NO:4. CP70 and A2780 cells were grown in […] surface tissue culture flasks until they reached 50% confluence. 12 μl of the Fugene 6 Transfection reagent was added into 4 ml of serum-free media for each transfection. After 5 minutes of incubation at room temperature, 1 μg of the plasmid pUNO-hMyD88 was added to the serum-free media containing Fugene 6 Transfection Reagent, and the mixtures were incubated at room temperature for another 15 minutes. The growth media in each flask was discarded, and the corresponding Fugene 6-plasmid-serum-free-media mixture was added and the flasks were incubated overnight at 37° C. 5% CO2. The transfection media was replaced with fresh growth media the second day and the cells were allowed to recover for 24 hours post transfection before treatments.
Applicants also determined whether the expression of MyD88 confers resistance that is specific to paclitaxel. Wildtype (wt) A2780 EOC cells (carboplatin sensitive) and A2780 EOC cells transfected with MyD88 were treated with 100 μg/ml carboplatin or 2 μM paclitaxel for 48 hours. Apoptosis was determined by measuring caspase-3/7 activity.

Assay [1] relates to MyD88- EOC cells. Kind of assay: Cytokine ELISA (GRO-α, MCP-1, IL-6), MyD88- EOC cells. The assay is classed as cell-based, human. The note with it: increasing concentrations of paclitaxel, 24 h, 48 h, 72 h. As to the method: (§2) The concentrations of the IL-6, GRO-α, MCP-1 were evaluated by ELISA, according to the manufacturer's instructions. (R&D Systems, Minneapolis, Minn.)
(§3) EOC cell lines were treated for 48 h with 10 μg/ml LPS and the levels of GRO-α, MCP-1, and IL-6 were determined. […] Unstimulated MyD88^+ EOC cells constitutively express all the cytokines tested. […] In contrast, unstimulated MyD88^− EOC cells secreted undetectable or low levels of these pro-inflammatory cytokines, which were not affected by TLR-4 ligation with LPS.
(§4) MyD88^+ and MyD88^− EOC cells were treated with increasing concentrations of paclitaxel for 24 h, 48 h, and 72 h and levels of IL-6 secretion were determined by ELISA.

Assay [2] deals with MyD88- EOC cells. Kind of assay: Cytokine microarray (Fast Quant), MyD88- EOC cells. Format: cell-based, human. To be noted: 48 h; LPS 10 μg/ml or paclitaxel 20 μM. As to the method: (§5) A panel of 10 cytokines, pro and anti-inflammatory, was simultaneously evaluated using the Fast Quant Human II kit (Whatman/Schleicher & Schuell) according to the manufacturer instructions. The signal was detected using the Genepix 4000 microarray reader and the results were analyzed using the Genepix 3.0 software (Whatman/Schleicher & Schuell).
(§6) To further characterize the effect of paclitaxel and LPS on the secretion of several cytokines and chemokines in MyD88^+ and MyD88^− EOC cells, Applicants used a high throughput microarray system (Whatman/Schleicher & Schull) to measure the levels of IL-6, IL-4, IL-8, IL-12, RANTES, and IFN-γ. Cytokine secretion was measured in the supernatants of EOC cells following 48 h incubation with either LPS (10 μg/ml) or paclitaxel (20 μM).

In assay [3] the test system is MyD88+ EOC cells. Kind of assay: Cytokine microarray (Fast Quant), MyD88+ EOC cells. The assay is classed as cell-based, human. The note with it: 48 h; LPS 10 μg/ml or paclitaxel 20 μM. On the procedure:
as §5, §6

Assay [4] has as its system MyD88+ EOC cells. Description: CASPASE GLO 3/7 apoptosis assay, MyD88+ EOC cells. Format: cell-based, human. The note with it: 2 μM paclitaxel, 24 h. On the procedure:
as §1
(§7) Paclitaxel has been reported to be a potential ligand to TLR-4 (23). […] EOC cells were treated with 2 μM paclitaxel for 24 h and apoptosis was determined by measuring the activity of caspases-3 and -7 using a caspase assay kit CASPASE GLO™ 3/7 Assay.

Assay [5] deals with MyD88+ EOC cells. Description: CELLTITER96 cell viability / proliferation assay, MyD88+ EOC cells. The assay is classed as cell-based, human. The note with it: EOC cells that express MyD88. On the procedure: Cell viability was evaluated using a cell proliferation assay, i.e., the CELLTITER96® Aqueous One Solution Cell Proliferation Assay (Promega, Madison, Wis.) according to the manufacturer's instructions. The values from the treated cells were compared with the values generated from the untreated cells and reported as percent viability. Each experiment was performed at least three times.
Once the expression of TLR-4 in EOC samples was established, Applicants evaluated the biological function of this receptor and also evaluated the significance of MyD88 status. EOC cell lines expressing MyD88 (MyD88^+) and those shown to lack MyD88 (MyD88^−) were treated with increasing concentrations of LPS (one of the main ligands for TLR-4) for 24 h and 48 h and cell viability was determined using a cell proliferation assay, i.e., the CELLTITER96® AQueous One Solution Cell Proliferation Assay. […] Thus, LPS induced a time- and dose-dependent increase in cell proliferation in cells expressing MyD88, but not in MyD88− EOC cells. LPS had no effect on viability of OSE cell, which are also negative for MyD88 expression.

For another assay, the system named is MyD88- EOC cell lines. Kind of assay: CASPASE GLO 3/7 apoptosis assay, MyD88- EOC cell lines. To be noted: 2 μM paclitaxel, 24 h. The assay is classed as cell-based, human. On the procedure:
as §1, §7

In another assay the test system is murine macrophages. To be noted: cited from earlier work.
A further assay relates to normal OSE cells. Description: CASPASE GLO 3/7 apoptosis assay, normal OSE cells. The assay is classed as cell-based. To be noted: 2 μM paclitaxel, 24 h.
The subject of another assay is A2780 and CP70 EOC cells. Description: Caspase-3/7 activity in A2780 and CP70 cells, wt or transfected with pUNO-hMyD88. To be noted: 48 h. Format: cell-based, human. As to the method:
as §1
Transfection was performed using a plasmid containing the full-length cDNA (SEQ ID NO:3) of human MyD88 (pUNO-hMyD88, Invivogen), which encodes the amino acid sequence of SEQ ID NO:4. CP70 and A2780 cells were grown in […] surface tissue culture flasks until they reached 50% confluence. 12 μl of the Fugene 6 Transfection reagent was added into 4 ml of serum-free media for each transfection. […]
Because Applicants observed a positive correlation between MyD88 expression and resistance to paclitaxel-induced apoptosis, their next objective was to determine whether the induction of MyD88 expression in EOC might confer resistance to paclitaxel. […] After 24 h of transfection, the cells were either left untreated or treated with 2 μM paclitaxel for 48 h and caspase-3/7 activity was determined.

In assay [6] the test system is MyD88+ EOC cells. Kind of assay: Cytokine ELISA (GRO-α, MCP-1, IL-6), MyD88+ EOC cells. Format: cell-based, human. The note with it: increasing concentrations of paclitaxel, 24 h, 48 h, 72 h; dose- and time-dependent, p<0.01. As to the method:
as §2, §3, §4
In general terms: An ELISA detects its analyte on a solid surface through an enzyme-linked reagent.

The subject of a further assay is MyD88+ R182 EOC cells. Kind of assay: IL-6 secretion in R182 EOC cells with and without MyD88 RNAi. Format: cell-based, human. As to the method:
EOC cells were transiently transfected with a GFP-expressing plasmid containing silencing RNA (siRNA) directed against MyD88 (psiRNA-hMyD88, Invivogen, San Diego, Calif.). Briefly, 1.5×10^5 cells were seeded in 60 mm dishes and cultured overnight until 40-60% confluent. Cells were then transfected for 18 h with 2 μg of DNA using Fugene 6 Transfection reagent (Roche Applied Science, Indianapolis, Ind.). Ratio of Fugene to DNA was 3:1. Following transfection, cells were allowed to recover in growth media for 24 h prior to treatment.
In order to confirm that in MyD88^+ EOC cells, the ligation of TLR-4 by either LPS or paclitaxel induces the production of cytokines, Applicants inhibited its expression in MyD88^+ R182 EOC cells using RNA interference technology. […] These findings confirmed that the cytokine response in EOC cells following LPS and paclitaxel treatment involves signaling through MyD88.

The subject of the next assay is MyD88+ cells. Kind of assay: Western blot of XIAP, pAkt and total Akt in MyD88+ cells. Format: cell-based, human. The source says:
Twenty μg protein were denatured in sample buffer (2.5% SDS, 10% glycerol, 5% β-mercapto-ethanol, 0.15 M Tris (pH=6.8) and 0.01% bromophenol blue) and subjected to 12% SDS-PAGE as previously described (17). Antibodies used: rabbit anti-TLR-4 (Santa Cruz Biotechnology, Santa Cruz, Calif., 1:1,000), rabbit anti-MyD88 (eBiosciences, San Diego, Calif., 1:1,000), mouse anti-NF-κB (Santa Cruz Biotechnology, 1:1,000), mouse anti-DNA topoisomerase 1 (BD Biosciences, San Jose, Calif., 1:500) and, rabbit anti-actin (Sigma Chemical Co., 1:10,000). Proteins were visualized using enhanced chemiluminescence (Pierce Biotechnology).
TLR-4 ligation through NF-κB and inflammatory molecules promotes cell survival by the induction of the expression of anti-apoptotic proteins (24, 25). The expression of X-linked inhibitor of apoptosis (XIAP), a major inhibitor of caspase-3 and 9, and the expression of Akt has been associated with tumor growth and chemoresistance in ovarian cancer cells (26-28). Therefore, Applicants evaluated the expression of XIAP and phosphorylated Akt (pAkt) following paclitaxel treatment in MyD88^+ cells. […] Similarly, XIAP levels increased 2 h post-treatment. In contrast, no change on the levels of total Akt was observed.
(In western blotting, separated proteins are transferred to a membrane and probed.)

On to `N.N.O=C([O-])C1(C(=O)[O-])CCC1.[Pt+2]` [carboplatin], for which the “sensitivity (apoptosis by caspase-3/7 activity)” value in the assay on A2780 EOC cells (A2780 transfected with MyD88) is “retained its sensitivity”. Further, the caspase-3/7 activity entry in the assay on A2780 EOC cells was “significant increase”.
`CC(=O)O[C@H]1C(=O)[C@@]2(C)[C@H]([C@H](OC(=O)c3ccccc3)[C@]3(O)C[C@H](OC(=O)[C@H](O)[C@@H](NC(=O)c4ccccc4)c4ccccc4)C(C)=C1C3(C)C)[C@]1(OC(C)=O)CO[C@@H]1C[C@@H]2O` [paclitaxel]: the caspase-3/7 activity result with A2780 EOC cells is given as “significant increase”; in the assay on MyD88+ EOC cells [4], “no significant change”; with MyD88- EOC cell lines, “significant increase”; with A2780 and CP70 EOC cells (cells transfected with pUNO-hMyD88, 2 μM paclitaxel) it was “no changes”; in the assay on A2780 and CP70 EOC cells (wt cells, 2 μM paclitaxel) it was “significant increase”. Moreover, the IL-6 levels result in the assay on MyD88- EOC cells [1] was “did not affect”. The “secretion of IL-4, IL-12 and IFN-γ” value in the assay on MyD88- EOC cells [2] and with MyD88+ EOC cells [3] was “neither MyD88^+ nor MyD88^− EOC cells secreted detectable levels” throughout. Moreover, in the assay on MyD88- EOC cells [2], the “secretion of IL-6, IL-8 or RANTES” value is on record as “neither constitutive secretion nor LPS- or paclitaxel-induced”. Besides, the “secretion of IL-6, IL-8 and RANTES” value in the assay on MyD88+ EOC cells [3] is listed as “increased secretion”. Besides, the “proliferation in culture upon TLR-4 ligation” value with MyD88+ EOC cells [5] is listed as “proliferate in culture”. Also, in the assay with murine macrophages (TLR-4 and MyD88 dependent), the “secretion of inflammatory cytokines, including TNFα, IL-6 and IL-8” value is given as “induces the secretion of inflammatory cytokines”. In the assay with murine macrophages (studies by Ding et al), the macrophage activation entry is “activates murine macrophages”. Also, the caspase activity result with normal OSE cells is on record as “Significant increase”. For the same compound, the IL-6 production result is “significant increase” in the assay on MyD88+ EOC cells [6] and “high levels of IL-6” in the assay on MyD88+ R182 EOC cells (wild type R182 cells, LPS 10 μg/ml or paclitaxel 2 μM). For the same compound, the IL-6 secretion entry in the assay with MyD88+ R182 EOC cells (R182 cells after inhibition of MyD88 expression by RNAi) is “decreased IL-6 secretion”. For the same compound, in the assay with MyD88+ cells (2 h post-treatment), the XIAP levels result is reported as “increased”. In addition, the “phosphorylated Akt (pAkt)” value with MyD88+ cells (4 h after treatment) was “significant increase”. The “levels of total Akt” value in the assay with MyD88+ cells (after paclitaxel treatment) is recorded as “no change”.
